Consider three compounds from US6235789A, “Benzocycloalkene compounds, their production and use” (Takeda Chemical Industries, Ltd., priority 1994, dated 2001).

This test has as its target melatonin receptor. In words: Inhibition of 2-[^125 I]iodomelatonin binding in forebrain homogenate of 7-day-old chicken. On the set-up: species or system chicken (white leghorn). The following applies: 80 pM 2-[^125 I]iodomelatonin, 90 minutes at 25° C., 7-day-old chicken forebrain homogenate, log-probit analysis; read-out: IC50, action of inhibiting 2-[^125 I]iodomelatonin binding. The procedure:
The farebrains of 7-day-old chicken (white leghorn) were homogenized with ice-cold assay buffer (50 mM Tris-HCl, pH 7.7 at 25° C.) and centrifuged at 44,000×g for 10 minutes at 4° C. The pellet was washed once with the same buffer and stored at -30° C. until use. For the assay, the frozen tissue pellet was thawed and homogenized with the assay buffer to make a protein concentration of 0.3-0.4 mg/ml. […] The reaction was terminated by adding 3 ml of ice-cold assay buffer immediately followed by vacuum filtration on Whatman GF/B which was further washed twice with 3 ml of ice-cold assay buffer. The radioactivity on the filter was determined by means of γ-counter.

Turning to `COc1ccc2c(c1)/C(=C/CNC(=O)C(F)(F)F)CCC2` [compound 33], the IC50 (commonly the concentration that gives 50% inhibition) turned out to be 0.72 nM.

Turning to `CC(=O)NCCC1CCCc2ccc(O)cc21` (stereo not drawn) [compound 35], the half-inhibitory concentration (IC50) came to 0.95 nM.

Consider `COc1ccc2c(c1)[C@H](CCNC(C)=O)CC2` [compound 66], for which the IC50 turned out to be 0.7 nM.
